Read-outs that look alike come from different tables or passages of the source.
Assays:
[1] = tested on: DyP1 (OFU1; recombinant DyP1 from mangrove soils); settings: read-out: Parameters / Km; H2O2 0.25 mM co-substrate; 100 mM citrate-phosphate pH 3; 30 °C
[2] = tested on: T1, DyP1 (OFU1; recombinant DyP1 from mangrove soils); assay: dye decolorization at […] nm, Michaelis-Menten fit; type: biochemical; settings: H2O2 0.25 mM co-substrate; 100 mM citrate-phosphate pH 2.6; 30 °C; read-out: Parameters / Km
T1 construct: codon-optimized synthetic cDNA from environmental cDNA capture; secreted from Pichia pastoris X33 (pPICZalphaA), C-terminal His6 tag; expected 55 kDa, about 70 kDa glycosylated on SDS-PAGE

Km [1] [µM]	Km [2] [mM]	Structure (SMILES)
651 ± 81	–	CCn1c(=NN=c2sc3cc(S(=O)(=O)O)ccc3n2CC)sc2cc(S(=O)(=O)O)ccc21 [ABTS]
–	1.5 ± 0.878	Nc1c(S(=O)(=O)O)cc(Nc2cccc(S(=O)(=O)CCOS(=O)(=O)O)c2)c2c1C(=O)c1ccccc1C2=O [RB19]

— article PMC8143184, “Exploring the Diversity of Fungal DyPs in Mangrove Soils to Produce and Characterize Novel Biocatalysts” (Journal of Fungi, 2021)
